Measurements reported in ChEMBL document CHEMBL4673222, “Discovery of a Bioactive Inhibitor with a New Scaffold for Cystathionine γ-Lyase” (J Med Chem, 2019).
Blank lines part the entries; values can stand above or below the compound they belong to. The source made the active and inactive calls. No cut-off for these calls is given here.

Legend:
[1] = target: T1, Cystathionine gamma-lyase (Homo sapiens, UniProt P32929); assay: Inhibition of human CSE using L-Cys as the substrate by tandem well based HTS assay
Rattus norvegicus [2] = assay: Inhibition of CSE in Sprague-Dawley rat model of hemorrhagic shock assessed as increase in plasma H-cys level at 50 mg/kg, ip after 45 mins by ELISA; type: functional, organism-based
Rattus norvegicus [3] = assay: Inhibition of CSE in Sprague-Dawley rat model of hemorrhagic shock assessed as reduction in plasma H2S level at 50 mg/kg, ip after 45 mins by methylene blue dye based method; type: functional, organism-based
Rattus norvegicus [4] = assay: Reversal of hypotension in Sprague-Dawley rat model of hemorrhagic shock assessed as mean artery pressure level at 50 mg/kg, ip after 45 mins (reference value: 35.8 mmHg); type: functional; conditions: 0.75 h
RAW264.7 = assay: Toxicity in mouse RAW264.7 cells assessed as cell viability up to 100 uM incubated for 12 to 24 hrs by CellTiter96 aqueous one solution cell proliferation assay; type: cell-based; conditions: time 12-24 hrs
[5] = target: T1, Cystathionine gamma-lyase; assay: Inhibition of human CSE expressed in HEK293T cells assessed as reduction in H2S contents at 20 to 50 uM by lead acetate assay; type: cell-based; conditions: dose 20-50 µM
HEK-293T = assay: Toxicity in HEK293T cells assessed as cell viability up to 100 uM incubated for 12 to 24 hrs by CellTiter96 aqueous one solution cell proliferation assay; type: cell-based; conditions: human, time 12-24 hrs
[6] = system: Cystathionine gamma-lyase (Homo sapiens), P32929 [R119K]; assay: Inhibition of human CSE R119K mutant expressed in HEK293T cells assessed as reduction in H2S contents at 200 to 500 uM by lead acetate assay; type: cell-based; conditions: dose 200-500 µM
[7] = system: Cystathionine gamma-lyase (Homo sapiens), P32929 [Y114F]; assay: Inhibition of human CSE Y114F mutant expressed in HEK293T cells assessed as reduction in H2S contents at 200 to 500 uM by lead acetate assay; type: cell-based; conditions: dose 200-500 µM
[8] = system: Cystathionine gamma-lyase (Homo sapiens), P32929 [R119A]; assay: Inhibition of human CSE R119A mutant expressed in HEK293T cells assessed as reduction in H2S contents at 200 to 500 uM by lead acetate assay; type: cell-based; conditions: dose 200-500 µM
[9] = target: T2, Cystathionine beta-synthase (Homo sapiens, UniProt P35520); assay: Inhibition of wild type human CBS expressed in HEK293T cells assessed as reduction in H2S contents; type: cell-based
T2 sequence (P35520 whole entry): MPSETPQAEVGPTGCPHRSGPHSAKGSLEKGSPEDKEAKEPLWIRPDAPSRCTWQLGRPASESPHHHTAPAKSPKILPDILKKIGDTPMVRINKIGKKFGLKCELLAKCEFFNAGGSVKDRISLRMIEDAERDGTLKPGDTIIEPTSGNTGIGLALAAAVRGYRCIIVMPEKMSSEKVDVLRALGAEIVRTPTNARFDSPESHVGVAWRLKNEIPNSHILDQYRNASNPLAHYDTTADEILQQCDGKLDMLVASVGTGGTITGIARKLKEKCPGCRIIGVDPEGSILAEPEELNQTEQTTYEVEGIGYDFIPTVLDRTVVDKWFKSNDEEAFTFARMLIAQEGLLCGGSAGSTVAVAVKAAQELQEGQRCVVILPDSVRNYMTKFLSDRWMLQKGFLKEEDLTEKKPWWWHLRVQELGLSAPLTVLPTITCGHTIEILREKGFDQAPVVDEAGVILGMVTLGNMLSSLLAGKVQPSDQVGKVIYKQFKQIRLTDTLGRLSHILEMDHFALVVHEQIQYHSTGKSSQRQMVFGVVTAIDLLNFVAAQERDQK

[10] = target: Cystathionine gamma-lyase (Homo sapiens, UniProt P32929, R119K); assay: Inhibition of human CSE R119K mutant expressed in HEK293T cells assessed as reduction in H2S contents; type: cell-based
[11] = target: Cystathionine gamma-lyase (Homo sapiens, UniProt P32929, Y114F); assay: Inhibition of human CSE Y114F mutant expressed in HEK293T cells assessed as reduction in H2S contents; type: cell-based
[12] = target: Cystathionine gamma-lyase (Homo sapiens, UniProt P32929, R119A); assay: Inhibition of human CSE R119A mutant expressed in HEK293T cells assessed as reduction in H2S contents; type: cell-based
Homo sapiens [13] = species on record: Homo sapiens; assay: Selectivity index, ratio of IC50 for human CSE R119K mutant expressed in HEK293T cells to IC50 for wild type human CSE expressed in HEK293T cells; type: cell-based
Homo sapiens [14] = species on record: Homo sapiens; assay: Selectivity index, ratio of IC50 for human CSE Y114F mutant expressed in HEK293T cells to IC50 for wild type human CSE expressed in HEK293T cells; type: cell-based
Homo sapiens [15] = species on record: Homo sapiens; assay: Selectivity index, ratio of IC50 for human CSE R119A mutant expressed in HEK293T cells to IC50 for wild type human CSE expressed in HEK293T cells; type: cell-based
[16] = target: T1, Cystathionine gamma-lyase; assay: Inhibition of wild type human CSE expressed in HEK293T cells assessed as reduction in H2S contents; type: cell-based
[17] = target: Cystathionine gamma-lyase (Mus musculus) (UniProt Q8VCN5); assay: Inhibition of CSE in mouse RAW264.7 cells assessed as increase in levels of cellular H-cys level at 1 to 500 uM by ELISA; type: cell-based; conditions: dose 1-500 µM
[18] = target: Cystathionine gamma-lyase (Mus musculus) (UniProt Q8VCN5); assay: Potency index, ratio of inhibition activity of PAG to test compound for inhibition of CSE in mouse RAW264.7 cells assessed as reduction in amount of released H2S level by lead acetate method; type: cell-based
[19] = target: T1, Cystathionine gamma-lyase; assay: Inhibition of human CSE expressed in mouse RAW264.7 cells assessed as reduction in amount of released H2S level at 20 to 50 uM by lead acetate method; type: cell-based; conditions: dose 20-50 µM
[20] = target: Cystathionine gamma-lyase (Mus musculus) (UniProt Q8VCN5); assay: Inhibition of CSE in mouse RAW264.7 cells assessed as reduction in amount of released H2S level at 20 to 50 uM by lead acetate method; type: cell-based; conditions: dose 20-50 µM
Homo sapiens [21] = species on record: Homo sapiens; assay: Selectivity index, ratio of Ki for human CSE R119K mutant to Ki for wild type human CSE
[22] = target: Cystathionine gamma-lyase (Mus musculus) (UniProt Q8VCN5); assay: (§1) Inhibition of CSE in mouse RAW264.7 cells assessed as reduction in endogenous H2S level by AzMC probe based fluorescence assay; type: cell-based
[23] = target: Cystathionine gamma-lyase (Mus musculus, UniProt Q8VCN5); assay: as §1; type: cell-based
Homo sapiens [24] = species on record: Homo sapiens; assay: Selectivity index, ratio of Ki for human CSE R119A mutant to Ki for wild type human CSE
Homo sapiens [25] = species on record: Homo sapiens; assay: Selectivity index, ratio of Ki for human CSE Y114F mutant to Ki for wild type human CSE
Homo sapiens [26] = species on record: Homo sapiens; assay: Selectivity index, ratio of IC50 for human CSE R119K mutant to IC50 for wild type human CSE
Homo sapiens [27] = species on record: Homo sapiens; assay: Selectivity index, ratio of IC50 for human CSE R119A mutant to IC50 for wild type human CSE
Homo sapiens [28] = species on record: Homo sapiens; assay: Selectivity index, ratio of IC50 for human CSE Y114F mutant to IC50 for wild type human CSE
Homo sapiens [29] = species on record: Homo sapiens; assay: Selectivity index, ratio of IC50 for human CSE Y114A mutant to IC50 for wild type human CSE
Homo sapiens [30] = species on record: Homo sapiens; assay: Selectivity index, ratio of IC50 for human CSE R62A mutant to IC50 for wild type human CSE
[31] = target: T1, Cystathionine gamma-lyase; assay: Competitive inhibition of human CSE using varying levels of L-Cys as substrate and fixed PLP levels
[32] = target: T1, Cystathionine gamma-lyase; assay: Effect on PLP interaction with human CSE assessed as effect on spectra of CSE-bound PLP
[33] = target: T1, Cystathionine gamma-lyase; assay: Non-competitive inhibition of human CSE using varying levels of PLP and fixed L-Cys as substrate
[34] = target: T1, Cystathionine gamma-lyase; assay: Binding affinity to human CSE by ITC analysis
[35] = target: T1, Cystathionine gamma-lyase; assay: Inhibition of human CSE by methylene blue method
[36] = target: T1, Cystathionine gamma-lyase; assay: Non-covalent reversible inhibition of human CSE
[37] = target: T2, Cystathionine beta-synthase; assay: Inhibition of CBS (unknown origin) by AzMC based fluorescence assay
[38] = target: T2, Cystathionine beta-synthase; assay: Inhibition of human CBS by methylene blue method
[39] = target: T1, Cystathionine gamma-lyase; assay: Inhibition of human CSE using H-Cys as the substrate by tandem well based HTS assay
[40] = target: T2, Cystathionine beta-synthase; assay: Inhibition of CBS (unknown origin) by methylene blue method
[41] = target: T1, Cystathionine gamma-lyase; assay: Inhibition of human CSE using H-Cys as the substrate by LC/MS/MS-based assay
[42] = target: T1, Cystathionine gamma-lyase; assay: Inhibition of human CSE using L-Cys as the substrate in presence of 0.01% Triton X-100 by tandem well based HTS assay
[43] = target: T1, Cystathionine gamma-lyase; assay: Inhibition of human CSE using L-Cys as the substrate in presence of 0.025% Triton X-100 by tandem well based HTS assay
[44] = Binding affinity to H2S assessed as absorbing of released H2S up to 100 uM in presence of NaHS as H2S donor; conditions: dose microM <=100
Homo sapiens [45] = species on record: Homo sapiens; assay: Selectivity index, ratio of IC50 for human CBS to IC50 for human CSE
Homo sapiens [46] = species on record: Homo sapiens; assay: Selectivity index, ratio of IC50 for human CBS to IC50 for human DDC
[47] = Binding affinity to H2S assessed as absorbing of released H2S at 200 uM in presence of NaHS as H2S donor

Chain of Cystathionine gamma-lyase (Mus musculus) (Q8VCN5 whole entry): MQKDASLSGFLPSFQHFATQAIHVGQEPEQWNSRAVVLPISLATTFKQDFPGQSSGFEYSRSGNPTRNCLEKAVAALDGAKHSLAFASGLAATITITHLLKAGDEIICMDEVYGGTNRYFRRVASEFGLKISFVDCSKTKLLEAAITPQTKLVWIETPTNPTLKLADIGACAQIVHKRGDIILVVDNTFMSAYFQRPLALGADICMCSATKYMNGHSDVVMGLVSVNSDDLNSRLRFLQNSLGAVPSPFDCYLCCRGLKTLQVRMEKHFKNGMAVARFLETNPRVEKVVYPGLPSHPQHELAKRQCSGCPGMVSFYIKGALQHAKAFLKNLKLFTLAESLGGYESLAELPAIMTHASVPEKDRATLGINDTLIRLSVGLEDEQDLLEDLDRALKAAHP
T1 sequence (P32929 whole entry): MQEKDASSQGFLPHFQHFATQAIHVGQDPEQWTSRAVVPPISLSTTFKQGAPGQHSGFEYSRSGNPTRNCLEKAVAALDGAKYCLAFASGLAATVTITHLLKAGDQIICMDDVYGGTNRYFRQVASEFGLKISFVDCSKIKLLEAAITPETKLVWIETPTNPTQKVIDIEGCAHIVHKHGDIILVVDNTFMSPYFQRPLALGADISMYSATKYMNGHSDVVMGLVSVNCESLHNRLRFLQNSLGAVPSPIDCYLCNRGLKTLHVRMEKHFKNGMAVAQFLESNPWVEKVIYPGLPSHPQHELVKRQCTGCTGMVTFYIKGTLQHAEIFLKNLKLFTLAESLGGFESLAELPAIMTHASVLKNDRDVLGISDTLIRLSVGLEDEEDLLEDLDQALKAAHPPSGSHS
Chain of Cystathionine gamma-lyase (Homo sapiens, UniProt P32929, R119K) (P32929 whole entry R119K): as the sequence (P32929 whole entry) above, with R119K counted along it
Chain of Cystathionine gamma-lyase (Homo sapiens), P32929 [R119K] (P32929 whole entry R119K): as the sequence (P32929 whole entry) above, with R119K counted along it
Chain of Cystathionine gamma-lyase (Homo sapiens, UniProt P32929, Y114F) (P32929 whole entry Y114F): as the sequence (P32929 whole entry) above, with Y114F counted along it
Chain of Cystathionine gamma-lyase (Homo sapiens), P32929 [Y114F] (P32929 whole entry Y114F): as the sequence (P32929 whole entry) above, with Y114F counted along it
Chain of Cystathionine gamma-lyase (Homo sapiens), P32929 [R119A] (P32929 whole entry R119A): as the sequence (P32929 whole entry) above, with R119A counted along it
Chain of Cystathionine gamma-lyase (Homo sapiens, UniProt P32929, R119A) (P32929 whole entry R119A): as the sequence (P32929 whole entry) above, with R119A counted along it
Chain of Cystathionine gamma-lyase (Mus musculus, UniProt Q8VCN5) (Q8VCN5 whole entry): as the sequence (Q8VCN5 whole entry) above

SMILES: O=CN/C=C\c1cc(O)ccc1O
IC50 [1]: < 50 µM

SMILES: O=C(O)C1=C/C(=C(\c2ccccc2)c2cc(C(=O)O)c(O)c3ccccc23)c2ccccc2C1=O
IC50 [1]: > 200 µM

SMILES: O=C1C(Cl)=C(NCCN2CCNCC2)C(=O)c2ccccc21
IC50 [1]: < 50 µM

SMILES: O=C(O)C1=CC(=C(c2ccc(O)c(C(=O)O)c2)c2ccc(O)c(C(=O)O)c2)C=CC1=O [AURINTRICARBOXYLIC ACID]
inhibition (Rattus norvegicus [2]): Active
inhibition (Rattus norvegicus [3]): Active
Activity (Rattus norvegicus [4]): 65 mmHg
Activity (RAW264.7): Non-Toxic
inhibition [5]: Active
Activity (HEK-293T): Non-Toxic
inhibition [6]: inactive
inhibition [7]: inactive
inhibition [8]: inactive
IC50 [9]: > 650 µM
IC50 [10]: 245 µM
IC50 [11]: 283 µM
IC50 [12]: 371 µM
Ratio IC50 (Homo sapiens [13]): 6
Ratio IC50 (Homo sapiens [14]): 6
Ratio IC50 (Homo sapiens [15]): 6
IC50 [16]: 34.7 µM
inhibition [16]: Dose-dependent effect
inhibition [17]: Active
Ratio [18]: 8
inhibition [19]: Active
inhibition [20]: Active
Ratio Ki (Homo sapiens [21]): 40.5
inhibition [22]: Dose-dependent effect
IC50 [23]: 43.2 µM
Ratio Ki (Homo sapiens [24]): 52
Ratio Ki (Homo sapiens [25]): 44.5
Ratio IC50 (Homo sapiens [26]): 26
Ratio IC50 (Homo sapiens [27]): 32
Ratio IC50 (Homo sapiens [28]): 29.6
Ratio IC50 (Homo sapiens [29]): > 10
Ratio IC50 (Homo sapiens [30]): > 10
Ki [31]: 0.6 µM
Activity [32]: inactive
alphaKi [33]: 4.2 µM
Kd [34]: 3.4 µM
IC50 [35]: 2.6 µM
inhibition [36]: Active
IC50 [37]: 3 µM
IC50 [38]: 54.2 µM
IC50 [39]: 1.7 µM
IC50 [40]: 20 µM
IC50 [41]: 3.3 µM
inhibition [41]: Dose-dependent effect
IC50 [42]: 1.8 µM
IC50 [43]: 1.8 µM
Activity [44]: inactive
Ratio IC50 (Homo sapiens [45]): 137
Ratio IC50 (Homo sapiens [46]): 143
IC50 [1]: 0.6 µM

SMILES: O=[N+]([O-])c1ccc(Sc2cccc[n+]2[O-])c2nonc12
IC50 [1]: < 50 µM

SMILES: CC1=C/C(=C(\c2cc(C)c(O)c(C(=O)O)c2)c2c(Cl)cccc2Cl)C=C(C(=O)O)C1=O
IC50 [1]: 155 µM

SMILES: COc1cccc2c1C(=O)C1=C(C[C@H](CC(=O)O)O[C@H]1C)C2=O
Ki [31]: 4.9 µM
Kd [34]: 3.8 µM
IC50 [36]: 6.2 µM
IC50 [39]: 7.4 µM
IC50 [41]: 13.5 µM
inhibition [42]: Active
inhibition [43]: Active
Activity [44]: inactive
Activity [47]: 20%
Ratio IC50 (Homo sapiens [45]): 161
Ratio IC50 (Homo sapiens [46]): 32
IC50 [1]: 6.2 µM

Now from value to compound:

IC50 [1]: < 50 µM
SMILES: O=C1C=C/C(=N/C2C(=O)c3ccccc3C(=O)C2Cl)C=C1Cl (centres undefined)

IC50 [1]: > 200 µM
SMILES: Nc1ccc(O)c(C(=O)O)c1 [MESALAMINE]

IC50 [1]: > 200 µM
SMILES: COC(=O)C1=CC(=C(c2ccc(O)c(C(=O)OC)c2)c2ccc(O)c(C(=O)OC)c2)C=CC1=O

IC50 [1]: < 50 µM
SMILES: NC1=C(Cl)C(=O)c2ncccc2C1=O

IC50 [1]: < 50 µM
SMILES: CN1CCN(C2=C(Cl)C(=O)c3ccccc3C2=O)CC1

IC50 [1]: < 50 µM
SMILES: O=C1C(Cl)=C(NCCCCCCNC2=C(Cl)C(=O)c3ccccc3C2=O)C(=O)c2ccccc21

IC50 [1]: 143 µM
SMILES: CC1=C/C(=C(\c2cc(C)c(O)c(C(=O)O)c2)c2c(Cl)ccc(S(=O)(=O)O)c2Cl)C=C(C(=O)O)C1=O
